PMC3560175 (Virology Journal, 2012)

Key:
[1] = system: Y181C RT mutant VSV-G pseudotyped HIV-1 vector; format: cell-based; settings: read-out: Antiviral EC50 Y181C
[2] = system: wild type VSV-G pseudotyped HIV-1 vector; assay: microbe, parasite or virus in culture; format: cell-based; settings: Human immunodeficiency virus 1, HEK-293T; 293T cells, average ± SD of two independent experiments in duplicate; read-out: Antiviral EC50 wt
[3] = system: early and late HIV-1 reverse transcription products; assay: Real-time PCR quantitation of early and late viral DNA in infected 293T cells; format: cell-based; settings: 5 μM added 1 hr before infection, 24 hrs post infection
[4] = system: V106A RT mutant VSV-G pseudotyped HIV-1 vector; format: cell-based; settings: read-out: Antiviral EC50 V106A
[5] = system: HIV-1 vector (NL4-3 Nef + IRES rluc); assay: microbe, parasite or virus in culture; format: cell-based
[6] = system: VSVg-pseudotyped HIV-1 vector; format: cell-based
[7] = system: K103N RT mutant VSV-G pseudotyped HIV-1 vector; format: cell-based; settings: read-out: Antiviral EC50 K103N
[8] = target: T1, HIV-1 reverse transcriptase (RT) (Human immunodeficiency virus type 1 group M subtype B, UniProt P03366); assay: biochemical
T1 construct: recombinant purified HIV-1 reverse transcriptase (RT) activity; purchased Ambion, Austin, TX

pLai3Luc2 HIV-1 vector = assay: microbe, parasite or virus in culture; format: cell-based
[9] = system: VSVg-pseudotyped HIV-1 vector (pNL4-3LucR+E-); assay: microbe, parasite or virus in culture; format: cell-based
[10] = system: Y188L RT mutant VSV-G pseudotyped HIV-1 vector; format: cell-based; settings: read-out: Antiviral EC50 Y188L
in vitro = settings: human

Description for PBMCs: PBMCs were activated in PBMC Growth Medium (RPMI 1640 with 15% FBS, Pen/Strep, 25 mM HEPES, 100 U/ml IL-2) supplemented with 5 μg/ml PHA-P. Two days after activation, the PBMC’s were maintained in the same medium (without PHA-P) for 3 more days. Aliquots of 2x10^4 PBMCs were then plated in 80 μl PBMC Growth Medium in each well of white 96 well plates (CoStar) and returned to the incubator overnight. […] Eight replicate samples were then set up, with 10 μl aliquots of the serially-diluted compounds added to the cells, and preincubated at 37°C for one hour prior to virus challenge. The cells were then challenged with 10 μl per well of the NL4-3 Nef+ IRES rluc virus vector bringing the total volume in each well to 100 μl final. The plates were incubated at 37°C for five days and then viral infection was monitored by adding 100 μl per well of Renilla-Glo Luciferase Reagent (Promega) and measuring the resultant luciferase activities using a Topcount-HTS (PerkinElmer). Cell toxicity was assessed on a duplicate plate of samples by adding 100 μl Cell-Titer Glo Reagent (Promega) and reading on a Topcount-HTS.

| SMILES | EC50 [1] | EC50 [2] | synthesis of early and late viral DNA products [3] | EC50 [4] | selectivity index [5] | EC50 ([5]; Human immunodeficiency virus 1, NL43, PBMC, 120 h) | combination effect with AZT (isobologram) [6] | combination effect with NVP (isobologram) [6] | EC50 [7] | IC50 [8] | selectivity index (pLai3Luc2 HIV-1 vector) | EC50 (pLai3Luc2 HIV-1 vector; Human immunodeficiency virus 1, CEM-GFP, 48 h) | decrease of luciferase activity (library screen) [9] | selectivity index [9] | EC50 ([9]; Human immunodeficiency virus 1, HEK-293T, read-out: EC50 (luciferase-based infectivity)) | cell toxicity (PBMCs) | EC50 [10] | CC50 at 24 h (in vitro) | CC50 (in vitro) |
| --- | --- | --- | --- | --- | --- | --- | --- | --- | --- | --- | --- | --- | --- | --- | --- | --- | --- | --- | --- |
| Clc1ccccc1-c1nc2ccccn2c1NC1CCCCC1 [F2] | 1680 ± 271 nM | 165 ± 39 nM | blocked the synthesis of both early and late viral DNA products | 1280 ± 357 nM | > 11.6 | 865 ± 222 nM | synergy | additivity | 3230 ± 127 nM | 2550 ± 365 nM | 29.5 | 862 ± 88 nM | more than 50% | 88.1 | 387 ± 46 nM | absence of cell toxicity | > 20000 nM |  |  |
| Cc1cn([C@H]2C[C@H](N=[N+]=[N-])[C@@H](CO)O2)c(=O)[nH]c1=O [AZT, 3’-azido-3’-deoxythymidine] | 6 nM | 14 ± 3 nM |  | 15 ± 1 nM |  |  |  |  | 14 ± 2 nM |  |  |  |  |  |  |  | 11 ± 5 nM | > 50000 nM |  |
| Cc1ccnc2c1NC(=O)c1cccnc1N2C1CC1 [NVP, nevirapine] | 2879 ± 6 nM | 19 ± 2 nM |  | 1260 ± 159 nM |  |  |  |  | 841 ± 49 nM |  |  |  |  |  |  |  | > 20000 nM |  | > 50000 nM |
